Results reported in ChEMBL document CHEMBL1201862, “PubChem BioAssay data set” (2004).
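The compound was tested at five concentrations on cells cultured in 96-well plates, with a 48-hour exposure period. Here, GI50 denotes the concentration required for 50% inhibition of growth.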 Calls of active or inactive are those of the source. No stated cut-off is given here; in the data, active = GI50 up to about 1.1 µM and inactive = higher.

Columns and labels:
Test in all cases: NCI-60 cell line screen, 48 h
[1] = tested on: NCI/ADR-RES
[2] = tested on: DU-145
[3] = tested on: A498
[4] = tested on: NCI-H23
[5] = tested on: HT-29
[6] = tested on: 786-0
[7] = tested on: EKVX
[8] = tested on: NCI-H460
[9] = tested on: SN12C
[10] = tested on: SW-620
[11] = tested on: LOX IMVI
[12] = tested on: K562
[13] = tested on: BT-549
[14] = tested on: NCI-H522
[15] = tested on: ACHN
[16] = tested on: HL-60
[17] = tested on: SK-MEL-5
[18] = tested on: HCC 2998
[19] = tested on: NCI-H226

Row | Structure (SMILES) | GI50 [1] | GI50 [2] | GI50 [3] | GI50 [4] | GI50 [5] | GI50 [6] | GI50 [7] | GI50 [8] | GI50 [9] | GI50 [10] | GI50 [11] | GI50 [12] | GI50 [13] | GI50 [14] | GI50 [15] | GI50 [16] | GI50 [17] | GI50 [18] | GI50 [19]
1 | Cc1cc(S(=O)(=O)Nc2nnc3ccccn23)c(S)cc1Cl | > 100 µM (inactive) | > 100 µM (inactive) | 25 µM (inactive) | > 100 µM (inactive) | > 100 µM (inactive) | > 100 µM (inactive) | > 100 µM (inactive) | 40.1 µM (inactive) | > 100 µM (inactive) | > 100 µM (inactive) | > 100 µM (inactive) | > 100 µM (inactive) | > 100 µM (inactive) | > 100 µM (inactive) | > 100 µM (inactive) | > 100 µM (inactive) | > 100 µM (inactive) | > 100 µM (inactive) | –
2 | O=C1OC(C2Cc3ccc4ccccc4c3C2=O)c2ccccc21 (stereo not given) | 49.2 µM (inactive) | > 100 µM (inactive) | > 100 µM (inactive) | – | – | 46.3 µM (inactive) | 29.6 µM (inactive) | 49.7 µM (inactive) | 93.5 µM (inactive) | 37.8 µM (inactive) | 38 µM (inactive) | 57.7 µM (inactive) | 37 µM (inactive) | 36.9 µM (inactive) | 53.1 µM (inactive) | 50 µM (inactive) | 22 µM (inactive) | 55.5 µM (inactive) | 19.5 µM (inactive)
3 | O=C1/C(=C2/CCCN2)C(c2ccc[nH]2)=NN1c1ccccc1 | > 100 µM (inactive) | > 100 µM (inactive) | > 100 µM (inactive) | > 100 µM (inactive) | > 100 µM (inactive) | > 100 µM (inactive) | > 100 µM (inactive) | > 100 µM (inactive) | > 100 µM (inactive) | > 100 µM (inactive) | > 100 µM (inactive) | > 100 µM (inactive) | > 100 µM (inactive) | > 100 µM (inactive) | > 100 µM (inactive) | > 100 µM (inactive) | > 100 µM (inactive) | – | > 100 µM (inactive)
4 | CCOC(=O)c1ccc2c(=O)n3c(C(=O)OCC)ccc3c(=O)n12 | > 100 µM (inactive) | > 100 µM (inactive) | > 100 µM (inactive) | > 100 µM (inactive) | > 100 µM (inactive) | > 100 µM (inactive) | > 100 µM (inactive) | > 100 µM (inactive) | > 100 µM (inactive) | > 100 µM (inactive) | > 100 µM (inactive) | > 100 µM (inactive) | > 100 µM (inactive) | 60.7 µM (inactive) | > 100 µM (inactive) | > 100 µM (inactive) | > 100 µM (inactive) | > 100 µM (inactive) | > 100 µM (inactive)
5 | CCOP(=O)(C/C=C/Cn1ncc(=O)[nH]c1=O)OCC | > 100 µM (inactive) | > 100 µM (inactive) | > 100 µM (inactive) | – | > 100 µM (inactive) | – | > 100 µM (inactive) | > 100 µM (inactive) | > 100 µM (inactive) | > 100 µM (inactive) | > 100 µM (inactive) | > 100 µM (inactive) | > 100 µM (inactive) | > 100 µM (inactive) | 63.2 µM (inactive) | > 100 µM (inactive) | > 100 µM (inactive) | > 100 µM (inactive) | > 100 µM (inactive)
6 | OCc1cc2c(ccc3sc4ccc5sc6ccc7ncccc7c6c5c4c32)s1 | 21.7 µM (inactive) | 17.1 µM (inactive) | 23.5 µM (inactive) | – | 15.5 µM (inactive) | 3.55 µM (inactive) | 12.4 µM (inactive) | 7.08 µM (inactive) | 11 µM (inactive) | 28.2 µM (inactive) | 12.6 µM (inactive) | 22.4 µM (inactive) | 14.3 µM (inactive) | 11 µM (inactive) | 31.6 µM (inactive) | 10.1 µM (inactive) | 4.08 µM (inactive) | – | 30.1 µM (inactive)
7 | CC(=O)Nc1ccc2[nH]c(C(=O)N3CC(CCl)c4c3cc([N+](=O)[O-])c3ccccc43)cc2c1 (stereo not given) | 4.45 µM (inactive) | 2.96 µM (inactive) | 0.863 µM (active) | 8.57 µM (inactive) | 29.9 µM (inactive) | 10.7 µM (inactive) | 5.09 µM (inactive) | 12.9 µM (inactive) | 7.8 µM (inactive) | 9.23 µM (inactive) | 9.2 µM (inactive) | 0.601 µM (active) | 3.87 µM (inactive) | 1.14 µM (inactive) | 5.57 µM (inactive) | 1.01 µM (active) | 5.89 µM (inactive) | 6.4 µM (inactive) | 9.38 µM (inactive)
